Like-named read-outs stand apart in the source and are kept apart here. Values belong to the molecule of their own block, whether it stands above or below them.
Experiments:
HER3 = biological target: T1, HER3 (Homo sapiens, UniProt P21860); test: HER3 (ERBB3) degradation, immunoblot; format: cell-based; settings: Table 5
T1 construct: endogenous in cells

BTK = biological target: T2, BTK (Homo sapiens, UniProt Q06187); test: BTK degradation in NAMALWA cells, immunoblot; format: cell-based
T2 construct: host or cells: NAMALWA

[1] = Pharmacokinetics after IV compound administration in mice; format: in vivo; settings: for pharmacokinetic profile relative to COMPOUND 102: IV mice; for Clearance (Cl) / Half Life (t1/2) / Cmax / AUC(0-t): IV mice (1 mg/Kg); for Cmax: Tmax 0.033 h; for AUC(0-t): mouse, in vivo, read-out: Exposure (AUClast)

T2 sequence (Q06187 whole entry): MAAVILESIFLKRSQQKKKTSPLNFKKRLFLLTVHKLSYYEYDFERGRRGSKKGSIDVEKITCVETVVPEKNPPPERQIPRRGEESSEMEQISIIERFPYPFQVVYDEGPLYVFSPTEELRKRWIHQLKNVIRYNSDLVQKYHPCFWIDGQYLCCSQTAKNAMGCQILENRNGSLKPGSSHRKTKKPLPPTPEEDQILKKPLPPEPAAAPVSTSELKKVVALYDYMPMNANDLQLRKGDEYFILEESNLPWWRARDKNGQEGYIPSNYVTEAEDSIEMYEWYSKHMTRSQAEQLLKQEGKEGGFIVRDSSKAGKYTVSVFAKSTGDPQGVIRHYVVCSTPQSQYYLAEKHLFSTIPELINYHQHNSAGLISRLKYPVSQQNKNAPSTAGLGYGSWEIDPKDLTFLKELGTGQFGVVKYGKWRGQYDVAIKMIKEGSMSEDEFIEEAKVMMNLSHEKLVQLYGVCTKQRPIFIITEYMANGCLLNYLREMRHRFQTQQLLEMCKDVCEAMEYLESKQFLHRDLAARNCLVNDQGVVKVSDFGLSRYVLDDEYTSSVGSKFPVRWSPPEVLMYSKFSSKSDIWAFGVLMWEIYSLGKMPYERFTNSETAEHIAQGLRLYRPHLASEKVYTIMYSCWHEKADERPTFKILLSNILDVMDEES
T1 sequence (P21860 20-1342): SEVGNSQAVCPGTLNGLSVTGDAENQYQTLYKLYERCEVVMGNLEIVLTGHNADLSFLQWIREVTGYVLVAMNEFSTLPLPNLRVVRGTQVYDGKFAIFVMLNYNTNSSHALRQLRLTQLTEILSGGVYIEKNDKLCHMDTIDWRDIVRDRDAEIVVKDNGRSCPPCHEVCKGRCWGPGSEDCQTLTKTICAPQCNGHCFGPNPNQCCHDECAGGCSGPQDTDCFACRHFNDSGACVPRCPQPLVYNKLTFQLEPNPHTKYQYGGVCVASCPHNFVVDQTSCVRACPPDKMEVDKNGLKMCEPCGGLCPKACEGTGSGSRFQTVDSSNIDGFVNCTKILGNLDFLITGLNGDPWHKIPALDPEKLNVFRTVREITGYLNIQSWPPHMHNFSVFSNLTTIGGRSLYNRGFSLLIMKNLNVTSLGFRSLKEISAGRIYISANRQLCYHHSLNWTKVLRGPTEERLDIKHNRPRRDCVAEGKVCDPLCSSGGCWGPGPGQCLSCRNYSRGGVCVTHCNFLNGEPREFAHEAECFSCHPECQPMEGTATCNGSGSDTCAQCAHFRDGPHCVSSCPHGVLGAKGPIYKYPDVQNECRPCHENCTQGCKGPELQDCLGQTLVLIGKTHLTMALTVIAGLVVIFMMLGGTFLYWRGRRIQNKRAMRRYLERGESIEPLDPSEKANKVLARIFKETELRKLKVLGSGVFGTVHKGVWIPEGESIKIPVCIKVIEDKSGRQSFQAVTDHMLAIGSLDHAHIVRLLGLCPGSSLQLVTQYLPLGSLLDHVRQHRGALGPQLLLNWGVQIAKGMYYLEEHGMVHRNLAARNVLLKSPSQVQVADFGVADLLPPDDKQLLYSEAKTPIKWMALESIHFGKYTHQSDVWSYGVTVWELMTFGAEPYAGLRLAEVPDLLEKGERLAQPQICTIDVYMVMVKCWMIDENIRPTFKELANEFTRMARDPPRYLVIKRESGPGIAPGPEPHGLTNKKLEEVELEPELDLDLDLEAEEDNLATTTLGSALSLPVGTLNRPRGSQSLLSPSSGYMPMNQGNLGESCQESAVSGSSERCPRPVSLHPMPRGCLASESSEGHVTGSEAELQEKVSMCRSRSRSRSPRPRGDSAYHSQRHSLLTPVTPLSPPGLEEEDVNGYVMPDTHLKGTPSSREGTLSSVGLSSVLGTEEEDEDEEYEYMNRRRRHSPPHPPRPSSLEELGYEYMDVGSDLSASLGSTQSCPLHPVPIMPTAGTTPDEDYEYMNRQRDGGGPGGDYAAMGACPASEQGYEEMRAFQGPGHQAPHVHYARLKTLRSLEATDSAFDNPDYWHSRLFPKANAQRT

HER3 Degradation (HER3): No
SMILES: Nc1ncnc2c1c(-c1ccc(Oc3ccccc3)cc1)nn2C1CCN(CCCOCCCOCCC(=O)Nc2cccc3c2C(=O)N(C2CCC(=O)NC2=O)C3=O)CC1 (stereo not drawn) [Compound 103, 3-(3-(3-(4-(4-amino-3-(4-phenoxyphenyl)-1H-pyrazolo[3,4-d]pyrimidin-1-yl)piperidin-1-yl)propoxy)propoxy)-N-(2-(2,6-dioxopiperidin-3-yl)-1,3-dioxoisoindolin-4-yl)propanamide]

HER3 Degradation (HER3): No
SMILES: Cc1ncsc1-c1ccc(CNC(=O)[C@@H]2C[C@@H](O)CN2C(=O)[C@@H](NC(=O)COCCCCCOCCCCCCN2CCC(n3nc(-c4ccc(Oc5ccccc5)cc4)c4c(N)ncnc43)CC2)C(C)(C)C)cc1 [Compound 111, (2S,4R)-1-((S)-2-(2-(5-(6-(4-(4-amino-3-(4-phenoxyphenyl)-1H-pyrazolo[3,4-d]pyrimidin-1-yl)piperidin-1-yl)hexyloxy)pentyloxy)acetamido)-3,3-dimethylbutanoyl)-4-hydroxy-N-(4-(4-methylthiazol-5-yl)benzyl)pyrrolidine-2-carboxainide]

degradation potency/profile compared with COMPOUND 102 (BTK; NAMALWA cells): similarly potent to COMPOUND 102 | Dmax (BTK; NAMALWA cells, read-out: Dmax): > 99% | DC50 (BTK; Table 5, NAMALWA cells): 8 nM | DC50 (BTK; Table 6, in NAMALWA cells line): 8 nM | Dmax (BTK; Table 6, in NAMALWA cells line): >99% | Clearance (Cl) [1]: 40.8 mL/min/kg | Half Life (t1/2) [1]: 1.64 h | Cmax [1]: 2100 ng/mL | AUC(0-t) [1]: 405 ng·h/mL
SMILES: Nc1ncnc2c1c(-c1ccc(Oc3ccccc3)cc1)nn2C1CCN(CCOCCOCCOc2ccc3c(c2)CN(C2CCC(=O)NC2=O)C3=O)CC1 (stereo not drawn) [COMPOUND 135, 3-(5-(2-(2-(2-(4-(4-amino-3-(4-phenoxyphenyl)-1H-pyrazolo[3,4-d]pyrimidin-1-yl)piperidin-1-yl)ethoxy)ethoxy)ethoxy)-1-oxoisoindolin-2-yl)piperidine-2,6-dione]
pharmacokinetic profile relative to COMPOUND 102 [1]: superior pharmacokinetic profiles relative to COMPOUND 102

SMILES: Cc1ncsc1-c1ccc(CNC(=O)[C@@H]2C[C@@H](O)CN2C(=O)[C@@H](NC(=O)COCCOCCN2CCC(n3nc(-c4ccc(Oc5ccccc5)cc4)c4c(N)ncnc43)CC2)C(C)(C)C)cc1 [Compound 129, (2S,4R)-1-((S)-2-(2-(2-(2-(4-(4-amino-3-(4-phenoxyphenyl)-1H-pyrazolo[3,4-d]pyrimidin-1-yl)piperidin-1-yl)ethoxy)ethoxy)acetamido)-3,3-dimethylbutanoyl)-4-hydroxy-N-(4-(4-methylthiazol-5-yl)benzyl)pyrrolidine-2-carboxamide]
Dmax (BTK; NAMALWA cells, read-out: Dmax): < 50% | DC50 (BTK; Table 5, NAMALWA cells): > 1000 nM | Max (BTK; Table 5, at 2.5 μM): 49% | DC50 (BTK; Table 6, in NAMALWA cells line): > 1000 nM | Dmax (BTK; Table 6, in NAMALWA cells line): <50%

SMILES: Cc1ncsc1-c1ccc(CNC(=O)[C@@H]2C[C@@H](O)CN2C(=O)[C@H](C(C)C)N2Cc3ccccc3C2=O)c(OCCCCOCCCCN2CCC(n3nc(-c4ccc(Oc5ccccc5)cc4)c4c(N)ncnc43)CC2)c1 [Compound 127, (2S,4R)—N-(2-(4-(4-(4-(4-amino-3-(4-phenoxyphenyl)-1H-pyrazolo[3,4-d]pyrimidin-1-yl)piperidin-1-yl)butoxy)butoxy)-4-(4-methylthiazol-5-yl)benzyl)-4-hydroxy-1-((S)-3-methyl-2-(1-oxoisoindolin-2-yl)butanoyl)pyrrolidine-2-carboxamide]
Dmax (BTK; NAMALWA cells, read-out: Dmax): < 50% | DC50 (BTK; Table 5, NAMALWA cells): > 1000 nM | DC50 (BTK; Table 6, in NAMALWA cells line): > 1000 nM | Dmax (BTK; Table 6, in NAMALWA cells line): <50%

SMILES: Cc1ncsc1-c1ccc(CNC(=O)[C@@H]2C[C@@H](O)CN2C(=O)[C@H](C(C)C)N2Cc3ccccc3C2=O)c(OCCCOCCC(=O)N2CCC(n3nc(-c4ccc(Oc5ccccc5)cc4)c4c(N)ncnc43)CC2)c1 [Compound 128, (2S,4R)—N-(2-(3-(3-(4-(4-amino-3-(4-phenoxyphenyl)-1H-pyrazolo[3,4-d]pyrimidin-1-yl)piperidin-1-yl)-3-oxopropoxy)propoxy)-4-(4-methylthiazol-5-yl)benzyl)-4-hydroxy-1-((S)-3-methyl-2-(1-oxoisoindolin-2-yl)butanoyl)pyrrolidine-2-carboxamide]
Dmax (BTK; NAMALWA cells, read-out: Dmax): < 50% | DC50 (BTK; Table 6, in NAMALWA cells line): > 1000 nM | Dmax (BTK; Table 6, in NAMALWA cells line): <50%

HER3 Degradation (HER3): No
SMILES: Cc1ncsc1-c1ccc(CNC(=O)[C@@H]2C[C@@H](O)CN2C(=O)[C@@H](NC(=O)COCCOCCOCCOCCN2CCN(C3CCC(n4nc(-c5ccc(Oc6ccccc6)cc5)c5c(N)ncnc54)CC3)CC2)C(C)(C)C)cc1 (stereo partly drawn) [Compound 114, (2S,4R)-1-((S)-17-(4-(4-(4-amino-3-(4-phenoxyphenyl)-1H-pyrazolo[3,4-d]pyrimidin-1-yl)cyclohexyl)piperazin-1-yl)-2-tert-butyl-4-oxo-6,9,12,15-tetraoxa-3-azaheptadecane)-4-hydroxy-N-(4-(4-methylthiazol-5-yl)benzyl)pyrrolidine-2-carboxamide]

DC50 (BTK; Table 5, NAMALWA cells): 11 nM | DC50 (BTK; Table 6, in NAMALWA cells line): 11 nM | Dmax (BTK; Table 6, in NAMALWA cells line, read-out: Dmax): > 99% | Clearance (Cl) [1]: 102 mL/min/kg | Half Life (t1/2) [1]: 1.62 h | Cmax [1]: 831 ng/mL | AUC(0-t) [1]: 166 ng·h/mL
SMILES: Nc1ncnc2c1c(-c1ccc(Oc3ccccc3)cc1)nn2C1CCN(CCOCCOCCOc2ccc3c(c2)C(=O)N(C2CCC(=O)NC2=O)C3=O)CC1 (stereo not drawn) [COMPOUND 131, 5-(2-(2-(2-(4-(4-amino-3-(4-phenoxyphenyl)-1H-pyrazolo[3,4-d]pyrimidin-1-yl)piperidin-1-yl)ethoxy)ethoxy)ethoxy)-2-(2,6-dioxopiperidin-3-yl)isoindoline-1,3-dione]
degradation potency/profile compared with COMPOUND 102 (BTK; NAMALWA cells): similarly potent degradation profile as COMPOUND 102 | pharmacokinetic profile relative to COMPOUND 102 [1]: superior pharmacokinetic profiles relative to COMPOUND 102

ability to degrade BTK (BTK; NAMALWA cells): inability to degrade BTK
SMILES: Nc1ncnc2c1c(-c1ccc(Oc3ccccc3)cc1)nn2C1CCN(CCOCCOCC(=O)Nc2cccc3c2C(=O)N(C2CCC(=O)NC2=O)C3=O)CC1 (stereo not drawn) [Compound 101, 2-(2-(2-(4-(4-amino-3-(4-phenoxyphenyl)-1H-pyrazolo[3,4-d]pyrimidin-1-yl)piperidin-1-yl)ethoxy)ethoxy)-N-(2-(2,6-dioxopiperidin-3-yl)-1,3-dioxoisoindolin-4-yl)acetamide]

ability to degrade BTK (BTK; NAMALWA cells): inability to degrade BTK
SMILES: Nc1ncnc2c1c(-c1ccc(Oc3ccccc3)cc1)nn2C1CCN(CCOCC(=O)Nc2cccc3c2C(=O)N(C2CCC(=O)NC2=O)C3=O)CC1 (stereo not drawn) [Compound 100, 2-(2-(4-(4-amino-3-(4-phenoxyphenyl)-1H-pyrazolo[3,4-d]pyrimidin-1-yl)piperidin-1-yl)ethoxy)-N-(2-(2,6-dioxopiperidin-3-yl)-1,3-dioxoisoindolin-4-yl)acetamide]

HER3 Degradation (HER3): No
SMILES: Cc1ncsc1-c1ccc(CNC(=O)[C@@H]2C[C@@H](O)CN2C(=O)[C@@H](NC(=O)COCCOCCOCCOCCCCN2CCC(n3nc(-c4ccc(Oc5ccccc5)cc4)c4c(N)ncnc43)CC2)C(C)(C)C)cc1 [Compound 113, (2S,4R)-1-((S)-19-(4-(4-amino-3-(4-phenoxyphenyl)-1H-pyrazolo[3,4-d]pyrimidin-1-yl)piperidin-1-yl)-2-tert-butyl-4-oxo-6,9,12,15-tetraoxa-3-azanonadecane)-4-hydroxy-N-(4-(4-methylthiazol-5-yl)benzyl)pyrrolidine-2-carboxamide]

HER3 Degradation (HER3): No
SMILES: Cc1ncsc1-c1ccc(CNC(=O)[C@@H]2C[C@@H](O)CN2C(=O)[C@@H](NC(=O)COCCOCCOCCOCCN2CCC(n3nc(-c4ccc(Oc5ccccc5)cc4)c4c(N)ncnc43)CC2)C(C)(C)C)cc1 [Compound 109, (2S,4R)-1-((S)-17-(4-(4-amino-3-(4-phenoxyphenyl)-1H-pyrazolo[3,4-d]pyrimidin-1-yl)piperidin-1-yl)-2-tert-butyl-4-oxo-6,9,12,15-tetraoxa-3-azaheptadecane)-4-hydroxy-N-(4-(4-methylthiazol-5-yl)benzyl)pyrrolidine-2-carboxamide]

HER3 Degradation (HER3): No
SMILES: Nc1ncnc2c1c(-c1ccc(Oc3ccccc3)cc1)nn2C1CCN(CCCCCCOCCCCCCOCC(=O)Nc2cccc3c2C(=O)N(C2CCC(=O)NC2=O)C3=O)CC1 (stereo not drawn) [Compound 107, 2-(6-(6-(4-(4-amino-3-(4-phenoxyphenyl)-1H-pyrazolo[3,4-d]pyrimidin-1-yl)piperidin-1-yl)hexyloxy)hexyloxy)-N-(2-(2,6-dioxopiperidin-3-yl)-1,3-dioxoisoindolin-4-yl)acetamide]

HER3 Degradation (HER3): No
SMILES: Cc1ncsc1-c1ccc(CNC(=O)[C@@H]2C[C@@H](O)CN2C(=O)[C@@H](NC(=O)COCCOCCOCCOCCCCCCN2CCC(n3nc(-c4ccc(Oc5ccccc5)cc4)c4c(N)ncnc43)CC2)C(C)(C)C)cc1 [Compound 115, (2S,4R)-1-((S)-22-(4-(4-amino-3-(4-phenoxyphenyl)-1H-pyrazolo[3,4-d]pyrimidin-1-yl)piperidin-1-yl)-2,2-dimethyl-5-oxo-7,10,13,16-tetraoxa-4-azadocosanecarbonyl)-4-hydroxy-N-(4-(4-methylthiazol-5-yl)benzyl)pyrrolidine-2-carboxamide]

SMILES: Nc1ncnc2c1c(-c1ccc(Oc3ccccc3)cc1)nn2C1CCN(CCCCOCCCCOCC(=O)Nc2ccc3c(c2)C(=O)N(C2CCC(=O)NC2=O)C3=O)CC1 (stereo not drawn) [Compound 105, 2-[4-[4-[4-[4-amino-3-(4-phenoxyphenyl)pyrazolo[3,4-d]pyrimidin-1-yl]-1-piperidyl]butoxy]butoxy]-N-[2-(2,6-dioxo-3-piperidyl)-1,3-dioxo-isoindolin-5-yl]acetamide]
HER3 Degradation (HER3): No

SMILES: CN1C(=O)CCC(N2C(=O)c3ccc(NC(=O)COCCOCCN4CCC(n5nc(-c6ccc(Oc7ccccc7)cc6)c6c(N)ncnc65)CC4)cc3C2=O)C1=O (stereo not drawn) [Compound 130, 2-(2-(2-(4-(4-amino-3-(4-phenoxyphenyl)-1H-pyrazolo[3,4-d]pyrimidin-1-yl)piperidin-1-yl)ethoxy)ethoxy)-N-(2-(1-methyl-2,6-dioxopiperidin-3-yl)-1,3-dioxoisoindolin-5-yl)acetamide]
ability to degrade BTK (BTK; NAMALWA cells): neither ibrutinib nor Compound 130 were able to induce degradation of BTK

From patent publication US20200121684A1, “MODULATORS OF BTK PROTEOLYSIS AND METHODS OF USE” (Yale University, priority 2018, published 2020)
